What was measured:
core clock components = assay: Time dependent protein and mRNA analysis in synchronized U2OS cells; assay type: cell-based, human
Experimental: FIGS. 5A-5K are an illustration of FORMULA I altered CLOCK protein level in time dependent manner. Confluent U2OS cells were synchronized by 2-hours treatment with dexamethasone (0.1 μM) and medium replaced with fresh medium containing CLK8 or DMSO. Cells were harvested at indicated time points. FIGS. 5A-5D show a time dependent analysis of core clock proteins by Western blot. (mean±SEM, n=3). FIGS. 5E-5K show a qPCR analysis of the core clock genes in a time dependent manner. (Data represent the mean±SEM, n=3 ***: p<0.001 **: p<0.005, *: p<0.05 versus DMSO control by one-way ANOVA Tukey).
Unsynchronized Bmal1::dluc U2OS cells were seeded on 6-well dishes. Confluent cells were treated with an appropriate amount of CLK8 for 48 hours. Control cells were treated with 0.5% vehicle (DMSO). After harvesting the cells, mRNAs were isolated (RNeasy, QIAGEN) and converted to cDNA (Thermo Scientific). Finally, cDNAs were subjected to SYBR Green-based RT-qPCR assay. PRLP0 was used as an internal control. For western blot analysis RIPA buffer was used to prepare whole cell lysates. The amount of protein for each sample was normalized to the β-ACTIN amount detected by β-Actin antibody (Cell Signalling).

CLOCK-F80A-K220A = biological target: T1, CLOCK-F80A-K220A (Homo sapiens, UniProt O15516, F80A/K220A); assay: Pull-down assay with biotinylated CLK8, HEK 293T cells overexpressing CLOCK-F80A-K220A and BMAL1; assay type: binding
T1 construct: expressed in transfected cells; host or cells: HEK 293T
T1 sequence (O15516 1-846 F80A/K220A): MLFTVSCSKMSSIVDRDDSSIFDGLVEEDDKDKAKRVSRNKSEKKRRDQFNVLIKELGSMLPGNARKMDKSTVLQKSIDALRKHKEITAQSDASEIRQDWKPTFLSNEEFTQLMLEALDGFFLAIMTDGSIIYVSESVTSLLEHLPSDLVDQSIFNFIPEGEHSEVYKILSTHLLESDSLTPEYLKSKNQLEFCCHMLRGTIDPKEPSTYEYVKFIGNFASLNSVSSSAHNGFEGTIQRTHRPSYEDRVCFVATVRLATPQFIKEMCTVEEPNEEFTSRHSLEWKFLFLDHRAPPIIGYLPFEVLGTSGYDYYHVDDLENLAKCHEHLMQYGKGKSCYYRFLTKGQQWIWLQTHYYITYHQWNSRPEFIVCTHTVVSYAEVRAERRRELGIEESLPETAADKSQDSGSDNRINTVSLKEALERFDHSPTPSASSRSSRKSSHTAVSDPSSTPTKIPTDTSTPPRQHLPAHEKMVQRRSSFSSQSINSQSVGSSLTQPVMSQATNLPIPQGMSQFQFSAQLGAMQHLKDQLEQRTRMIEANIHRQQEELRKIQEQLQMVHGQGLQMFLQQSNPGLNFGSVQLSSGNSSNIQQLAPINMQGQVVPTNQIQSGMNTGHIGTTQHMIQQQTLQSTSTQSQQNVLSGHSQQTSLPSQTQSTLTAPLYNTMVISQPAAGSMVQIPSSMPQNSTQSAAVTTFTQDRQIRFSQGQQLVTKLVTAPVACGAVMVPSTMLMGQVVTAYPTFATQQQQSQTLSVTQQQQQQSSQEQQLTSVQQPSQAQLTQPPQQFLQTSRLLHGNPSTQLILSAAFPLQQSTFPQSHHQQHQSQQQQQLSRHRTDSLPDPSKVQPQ
Experimental: HEK293T cells were transiently transfected with tag-free hsClock and mBmal1. After 48 hours of transfection, cells were harvested and whole cell lysate was prepared with ice-cold lysis buffer (50 mM Tris-HCl pH 7.4, 2 mM EDTA, 1 mM MgCl2, 0.2% NP-40, 1 mM sodium orthovanadate, 1 mM sodium fluoride and protease inhibitor cocktail) followed by centrifugation at 7000×g at 4° C. for 10 minutes. Lysate was diluted with ice-cold 2× binding buffer (100 mM Tris-HCl pH 7.4, 300 mM NaCl, 0.2% NP-40, 2 mM sodium orthovanadate, 2 mM sodium fluoride, and protease inhibitor cocktail) 27. The lysate was divided into three fractions to be treated with either DMSO, or 20 μM of bitoinylated-CLK8 (bait) with or without 200 μM CLK8 (competitor). The lysate-compound samples were incubated and mixed continuously at 4° C. for 1 hour. After equilibrating NeutroAvidin Agarose resin (Thermo Scientific) with lysis buffer, the lysate-compound mixture and NeutroAvidin Agarose resin were incubated and mixed continuously at 4° C. overnight. The beads were washed four times with 1× binding buffer. To elute the bound proteins Laemmli buffer was added and samples were heated at 95° C. for 7 minutes. The pull-down precipitates were subjected to SDS-PAGE and transferred to a PVDF membrane (Millipore). […]

precipitated mutant CLOCK in the presence of the competitor (CLOCK-F80A-K220A): did not disappear
SMILES: CC1(C)CCc2c(cc(OCC(=O)Nc3ccccc3C(N)=O)c3c(-c4ccccc4)cc(=O)oc23)O1 [CLK8, 2-[2-({12,12-dimethyl-4-oxo-6-phenyl-3,11-dioxatricyclo [8.4.0.0,2,7]tetradeca-1,5,7,9-tetraen-8-yl}oxy)acetamido] benzamide]
CRY1 and PER2 protein abundance (core clock components): comparable protein abundance
CRY1 and PER2 transcript level (core clock components): significantly reduced
protein levels of CLOCK and BMAL1 (core clock components): reduced
transcriptional level of Clock (core clock components): increased
oscillatory amplitude of clock gene expression (core clock components; collected every 6 h): generally lower

Source: patent publication US12558342B2, “2-[2-({12,12-dimethyl-4-oxo-6-phenyl-3,11-dioxatricyclo[8.4.0.0,2,7]tetradeca-1,5,7,9-tetraen-8-yl}oxy)acetamido]benzamide and derivatives as inhibitor of clock:bmal1 interaction for the treatment of circadian rhythm diseases and disorders” (KOC UNIVERSITESI, priority 2019, dated 2026)
